Laboratory results published in patent publication US20260284214A1, “EXATECAN DERIVATIVE AND ANTIBODY-DRUG CONJUGATE THEREOF” (priority 2023, published 2026).
Like-named read-outs stand apart in the source and are kept apart here.

Tests used:
[1] = molecular target: hERG potassium channel (Homo sapiens, UniProt Q12809); experiment: hERG experiment, manual patch clamp; type: cell-based; conditions: HEK-293 cells stably expressing hERG; for inhibition at 10 µM: human, read-out: hERG current inhibition rate % (Mean ± SE, n = 2)
Chain of hERG potassium channel (Q12809 whole entry): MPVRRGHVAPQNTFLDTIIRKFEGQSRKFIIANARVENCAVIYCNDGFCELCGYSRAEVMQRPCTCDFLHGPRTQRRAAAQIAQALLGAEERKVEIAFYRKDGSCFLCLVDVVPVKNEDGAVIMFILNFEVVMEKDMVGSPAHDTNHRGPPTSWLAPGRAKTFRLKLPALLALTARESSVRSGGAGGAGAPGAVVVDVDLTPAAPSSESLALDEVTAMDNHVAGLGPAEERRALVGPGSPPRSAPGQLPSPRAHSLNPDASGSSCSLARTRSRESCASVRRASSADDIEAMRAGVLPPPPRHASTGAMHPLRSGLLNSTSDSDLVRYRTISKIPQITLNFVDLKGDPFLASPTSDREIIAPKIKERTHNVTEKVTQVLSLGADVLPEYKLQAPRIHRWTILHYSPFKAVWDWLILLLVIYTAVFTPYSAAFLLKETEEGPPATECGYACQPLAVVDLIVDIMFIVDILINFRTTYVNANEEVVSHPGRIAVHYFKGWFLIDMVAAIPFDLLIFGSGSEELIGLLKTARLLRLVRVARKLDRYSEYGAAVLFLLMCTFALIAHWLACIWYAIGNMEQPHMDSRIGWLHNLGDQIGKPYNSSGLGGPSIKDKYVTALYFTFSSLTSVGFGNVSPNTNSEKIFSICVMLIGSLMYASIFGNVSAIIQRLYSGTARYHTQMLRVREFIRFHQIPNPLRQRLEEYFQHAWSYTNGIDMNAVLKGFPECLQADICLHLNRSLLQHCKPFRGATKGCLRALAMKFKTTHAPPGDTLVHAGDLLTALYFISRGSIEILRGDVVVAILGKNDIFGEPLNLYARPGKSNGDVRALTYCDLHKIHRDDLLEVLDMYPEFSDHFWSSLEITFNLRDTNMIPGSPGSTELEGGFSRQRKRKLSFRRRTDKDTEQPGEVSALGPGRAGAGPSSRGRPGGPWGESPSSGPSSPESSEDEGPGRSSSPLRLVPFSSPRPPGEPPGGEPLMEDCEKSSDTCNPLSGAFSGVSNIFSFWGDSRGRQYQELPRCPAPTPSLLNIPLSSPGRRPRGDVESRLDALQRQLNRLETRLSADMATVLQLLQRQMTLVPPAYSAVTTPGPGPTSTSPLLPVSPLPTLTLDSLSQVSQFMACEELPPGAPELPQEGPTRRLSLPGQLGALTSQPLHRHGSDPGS
Description: Inhibitory effects of the compound of Example 2, the compound of Example 3 and Dxd on an hERG potassium channel were studied by a manual patch clamp technique (a gold standard of hERG safety evaluation), and the risk of ventricular repolarization toxicity caused was evaluated.
The weighed test sample was prepared into a 10 mM stock solution with DMSO, and then the stock solution of the test object was diluted into 3.33 mM intermediate dilution with DMSO. Then, 30 μL of the dilution was added into 10 mL of extracellular fluid to prepare 10 μM working solution, it was ensured that a DMSO content was 0.3%, then 50 μL of F68 was added to the extracellular fluid to enhance a solubility of the test object, and an F68 concentration was 0.5%. Solutions at all concentrations were subjected to ultrasound treatment for 20 minutes. The solubility of the sample was visually observed, and there was no visible precipitation in the 10 μM to-be-tested solution of the test object.
An HEK-293 cell line stably expressing the hERG potassium channel was adopted, and hERG potassium channel cells were purchased from Creacell Company (article number: A-0320). Cell culture method:
The HEK-293 cell line stably expressing the hERG potassium channel was cultured in a DMEM culture medium containing 10% fetal bovine serum and 0.8 mg/mL G418 at a culture temperature of 37° C. under a carbon dioxide concentration of 5%.
Cell passage: the old culture medium was removed, and the cells were washed once with PBS, then 1 mL of TrypLE™ Express solution was added, and the mixture was incubated at 37° C. for about 0.5 minutes. When the cells were separated from a dish bottom, about 5 mL of complete culture medium preheated at 37° C. was added. A cell suspension was gently blown with a straw to separate the aggregated cells. The cell suspension was transferred to a sterile centrifuge tube and centrifuged at 1000 rpm for 5 minutes to collect the cells. […]
An inhibitory effect of the test object on the hERG channel was detected by the manual patch clamp technique.

[2] = Metabolism stability test in liver microsomes; type: in vitro ADME; conditions: human liver microsomes; for CLint scaled / half-life / microsomal CLint: pH 7.4; for microsomal CLint: read-out: CLint(mic)
Description: The experiment was intended to detect metabolic stabilities of the compounds in the present disclosure in human liver microsomes.
• Human Liver Microsomes (Corning, Cat No. 452117)
Experimental method: each incubation system contained a phosphate buffer solution (PBS, pH 7.4), a liver microsomal protein, a to-be-tested sample (acetonitrile solution) and NADPH, incubated in water bath at 37° C., and the same volume of cold acetonitrile (comprising an internal standard) was added 0, 5, 15, 30, 45 and 60 minutes after reaction respectively to terminate the reaction. The sample solution was centrifuged, 80 μL of the supernatant was taken and 240 μL of ultrapure water was added, and the remaining amount of the prototype substrate was detected by LC-MS/MS method. The negative control was incubated with a human liver microsome NCF group (without NADPH).

[3] = In-vivo pharmacokinetics of compounds in SD rats; conditions: intravenous; for clearance / half-life / AUC(0-t) at 8 h / Vd: rat, plasma; for AUC(0-t) at 8 h: read-out: AUC0-8 h; for Vd: read-out: Vz
Description: SD rats were taken as test animals to study in-vivo pharmacokinetics behaviors after injection administration of the compounds of the present disclosure to male and female SD rats at dosages of 1 mg/kg and 3 mg/kg.
• Species: male and female SD rats (2 female rats and 2 male rats/group) • Grade: SPF grade • Weight: about 200 g • Source: Hunan SJA Laboratory Animal Co., Ltd.
Male and female SD rats were injected with the test sample solution, and Compound 2 of the example and the Dxd were given in a dosage of 1 mg/kg and a dosage volume of 4 mL/kg. Compound 3 of the example and the Dxd were given in a dosage of 3 mg/kg and a dosage volume of 5 mL/kg.
Preparation of test sample solution: the test sample was dissolved with a solvent (10% DMSO-60% PEG400-30% (20% HP-β-CD-water)), and DMSO, PEG 400 and 20% HP-β-CD-water were added sequentially during preparation.
0 before administration, and 5 minutes, 15 minutes, 0.5 hours, 1 hour, 2 hours, 3 hours, 5 hours and 8 hours after administration.
0.2 mL of blood was collected and placed into an EDTA-2K anticoagulant tube. The anticoagulant tube was turned upside down gently to fully mix the anticoagulant (EDTA-2K) with the blood, and then immediately placed into wet ice, and plasma was centrifuged for separation within 1 hour after blood collection at 4° C. and 6800 g for 6 minutes. After centrifugation, the plasma was separated and stored in an ultra-low-temperature refrigerator as soon as possible until sample analysis.

Row | SMILES | inhibition at 10 µM [1] | CLint scaled [2] | half-life ([2]; NADPH, 37° C.) | microsomal CLint [2] | clearance ([3]; 1 mg/kg) | half-life ([3]; 1 mg/kg) | AUC(0-t) at 8 h ([3]; 1 mg/kg) | Vd ([3]; 1 mg/kg) | clearance ([3]; 3 mg/kg) | half-life ([3]; 3 mg/kg) | AUC(0-t) at 8 h ([3]; 3 mg/kg) | Vd ([3]; 3 mg/kg) | hERG current inhibition rate % (Mean ± SE, n = 2) ([1]; 10 μM) | CLint(liver) [2] | CLint(mic) [2] | T1/2 ([2]; NADPH, 37° C.) | AUC0-8 h ([3]; 1 mg/kg) | CL ([3]; 1 mg/kg) | T1/2 ([3]; 1 mg/kg) | Vz ([3]; 1 mg/kg)
1 | CC[C@@]1(O)C(=O)OCc2c1cc1n(c2=O)Cc2c-1nc1cc(F)c(C)c3c1c2[C@@H](NC(=O)CO)CC3 [Dxd] | 10.3% | 12.3 mL/min/kg | 1.69 h | 13.6 µL/min/mg | 69.2 mL/min/kg | 1.3 h | 240 ng·h/mL | 7.96 L/kg | 65.7 mL/min/kg | 1.96 h | 760 ng·h/mL | 10.9 L/kg | – | – | – | – | – | – | – | –
2 | C#CCN(CCO)C(=O)N[C@H]1CCc2c(C)c(F)cc3nc4c(c1c23)Cn1c-4cc2c(c1=O)COC(=O)[C@]2(O)CC [Example 2] | – | – | – | – | – | – | – | – | – | – | – | – | 2.89% ± 1.86% | 20.0 mL/min/kg | 22.2 µL/min/mg | 1.04 h | 77.9 ng·h/mL | 12700 mL/min/kg | 1.59 h | 29 L/kg
3 | C=CCN(CCO)C(=O)N[C@H]1CCc2c(C)c(F)cc3nc4c(c1c23)Cn1c-4cc2c(c1=O)COC(=O)[C@]2(O)CC [Example 3, 1-allyl-3-((1S,9S)-9-ethyl-5-fluoro-9-hydroxy-4-methyl-10,13-dioxo-2,3,9,10,13,15-hexahydro-1H,12H-benzo[de]pyrano[3′,4′:6,7]indolizino[1,2-b]quinolin-1-yl)-1-(2-hydroxyethyl)urea] | 15.8% | 23.7 mL/min/kg | 0.877 h | 26.4 µL/min/mg | – | – | – | – | 124 mL/min/kg | 1.73 h | 405 ng·h/mL | 18.7 L/kg | – | – | – | – | – | – | – | –
